# Measurements taken from publication PMC8480782, “Efficient Dimerization Disruption of Leishmania infantum Trypanothione Reductase by Triazole-phenyl-thiazoles” (Journal of Medicinal Chemistry, 2021).
# Where two headings read alike, the source gives them in different places.
# Legend:
# [1] = test system: L. infantum promastigotes; assay: Leishmanicidal activity on promastigotes (PI exclusion, flow cytometry); type: cell-based, Leishmania infantum; settings: for EC50: Leishmania infantum; for SIp (ratio of EC50 against human cells to EC50 against promastigotes): HepG2 / promastigotes
# Procedure: (§1) L. infantum promastigotes (MCAN/ES/89/IPZ229/1/89) were grown in Roswell Park Memorial Institute (RPMI)-1640 medium (Sigma-Aldrich, St. Louis, MO) supplemented with 10% heat-inactivated fetal calf serum (FCS), antibiotics, and 25 mM HEPES (pH 7.2) at 26 °C. L. infantum axenic amastigotes (MCAN/ES/89/IPZ229/1/89) were grown in M199 medium (Invitrogen, Leiden, The Netherlands) supplemented with 10% heat-inactivated FCS, 1 g/L β-alanine, 100 mg/L L-asparagine, 200 mg/L sucrose, 50 mg/L sodium pyruvate, 320 mg/L malic acid, 40 mg/L fumaric acid, 70 mg/L succinic acid, 200 mg/L α-ketoglutaric acid, 300 mg/L citric acid, 1.1 g/L sodium bicarbonate, 5 g/L morpholineethanesulfonic acid (MES), 0.4 mg/L hemin, and 10 mg/L gentamicine, pH 5.4, at 37 °C.
# (§2) Drug treatment of L. infantum promastigotes was performed during the logarithmic growth phase at a concentration of 2 × 10^6 parasites/mL at 26 °C for 24 h. […] EC50 was evaluated by flow cytometry by the propidium iodide (PI) exclusion method. After selection of the parasite population based on their forward scatter (FSC) and side scatter (SSC) values, live and dead parasite cells were identified by their permeability to PI. All of the assays were conducted in triplicate in at least three independent experiments. Data were analyzed using a nonlinear regression model with GraFit 6 software (Erithacus, Horley, Surrey, U.K.).
# [2] = test system: L. infantum axenic amastigotes; assay: Leishmanicidal activity on axenic amastigotes (PI exclusion, flow cytometry); type: cell-based, Leishmania infantum; settings: for SIa (ratio of EC50 against human cells to EC50 against amastigotes): HepG2 / axenic amastigotes; for EC50: Leishmania infantum, axenic amastigotes, 24 h at 37 °C, read-out: EC50 amastigotes
# Procedure: as §1
# Axenization was performed by diluting 0.5 mL of a 7-day stationary phase culture of L. infantum promastigotes (2–3 × 10^7 parasites/mL) in 4.5 mL of amastigotes medium and incubating the culture at 37 °C for 2 or 3 days. L. infantum axenic amastigotes apparition was followed by phase-contrast microscopy using an Eclipse Ti inverted microscope (Nikon, Tokyo, Japan).
# as §2
# [3] = target: T1, LiTryR dimer (Leishmania infantum, UniProt A4HSF7); assay: biochemical; settings: 400 nM LiTryR, 16 h at 37 °C; read-out: IC50^dim, LiTryR monomer displacement (dimer quantitation ELISA)
# T1 construct: made in house; host or cells: E. coli BL21 (DE3) Rossetta (co-transformed with both plasmids)
# T1 sequence (A4HSF7 1-491): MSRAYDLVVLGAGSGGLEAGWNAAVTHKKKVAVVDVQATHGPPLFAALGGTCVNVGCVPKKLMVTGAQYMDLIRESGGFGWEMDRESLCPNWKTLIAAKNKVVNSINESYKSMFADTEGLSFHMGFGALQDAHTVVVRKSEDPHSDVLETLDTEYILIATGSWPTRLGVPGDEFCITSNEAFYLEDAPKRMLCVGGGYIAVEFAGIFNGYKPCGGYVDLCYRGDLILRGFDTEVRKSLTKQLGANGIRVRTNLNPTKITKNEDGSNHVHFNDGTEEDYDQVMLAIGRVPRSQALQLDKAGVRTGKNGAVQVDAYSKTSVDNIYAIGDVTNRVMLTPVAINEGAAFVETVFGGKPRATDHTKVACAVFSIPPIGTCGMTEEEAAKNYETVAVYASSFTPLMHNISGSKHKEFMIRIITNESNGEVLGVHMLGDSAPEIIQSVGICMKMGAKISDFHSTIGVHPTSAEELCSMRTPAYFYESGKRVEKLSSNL
# Procedure: The stability of the LiTryR dimeric form in the presence of 1,2,3-triazole-phenyl-thiazole-based compounds was evaluated using the novel enzyme-linked immunosorbent assay (ELISA) developed in our laboratory.[25] […] Next, the different solutions were centrifuged at 18 000g for 15 min at room temperature. The supernatants (200 μL/well) were added to the α-FLAG-coated plates (Sigma-Aldrich, St. Louis, MO) and incubated for 30 min at 37 °C with agitation in a humid atmosphere. The plates were washed five times with TTBS buffer (2 mM Tris, pH 7.6, 138 mM NaCl, and 0.1% Tween-20) and incubated with diluted monoclonal α-HIS horseradish peroxidase (HRP)-conjugated antibody (200 μL, 1:50 000, Abcam, Cambridge, U.K.) in fatty acid- and essentially globulin-free bovine serum albumin (BSA) (5%) prepared in TTBS buffer for 1 h at room temperature. The plates were washed five times, and o-phenylenediamine dihydrochloride (OPD) substrate prepared according to the manufacturer’s instructions was added. The enzymatic reaction was stopped after 5 min with H2SO4 (100 μL, […]), and the absorbances were measured at 490 nm in an EnSpire Multimode Plate Reader (PerkinElmer, Waltham, MA). All of the assays were conducted in triplicate in at least three independent experiments. Data were analyzed using a nonlinear regression model with GraFit 6 software (Erithacus, Horley, Surrey, U.K.).
# [4] = test system: HepG2 cells; assay: Cellular toxicity, crystal violet assay; type: cell-based; settings: Homo sapiens, HepG2; 24 h, crystal violet method; read-out: EC50 HepG2
# Procedure: Liver hepatocellular carcinoma HepG2 cells were grown in Dulbecco’s modified Eagle’s medium (DMEM) (Sigma-Aldrich, St. Louis, MO) with 10% heat-inactivated FCS, antibiotics, and 10 mM HEPES.
# Drug treatment of liver hepatocellular carcinoma HepG2 cells was performed at a concentration of 10^5 cells/mL at 37 °C and 5% CO2 for 24 h. EC50 was evaluated by the crystal violet assay. Briefly, cells were washed with phosphate-buffered saline (PBS) and stained with 200 μL of crystal violet solution (0.2% crystal violet, 2% ethanol) for 10 min at room temperature. Next, the plates were washed twice with tap water and allowed to dry. The stained cells were solubilized with 400 μL of 1% sodium dodecyl sulfate (SDS), and the color intensity was quantified at 570 nm using an EnSpire Multimode Plate Reader (PerkinElmer, Waltham, MA). All of the assays were conducted in triplicate in at least three independent experiments. Data were analyzed using a nonlinear regression model with GraFit 6 software (Erithacus, Horley, Surrey, U.K.).
# [5] = target: T2, LiTryR (Leishmania infantum, UniProt A4HSF7); assay: biochemical; type: biochemical; settings: LiTryR; 1 μM TS2; maximum assayed 75 μM; read-out: IC50^act, TryR oxidoreductase activity
# T2 construct: HIS (N); made in house; host or cells: E. coli BL21 (DE3) Rossetta
# T2 sequence (A4HSF7 1-491): as above
# Procedure: A concentration of 1 μM TS2 was used for this initial screening. This low substrate concentration is sufficient for comparison of compound inhibitory activity in the oxidoreductase assay.
# Recombinant L. infantum TryR (LiTryR) HIS-tagged and HIS-FLAG-tagged versions were used for all LiTryR oxidoreductase activity and dimer quantitation assays. These LiTryR versions were purified from Escherichia coli as previously described.[25] Briefly, pRSETA-HIS-LiTryR construct alone or in combination with the pET24a-FLAG-LiTryR construct was transformed into BL21 (DE3) Rossetta E. coli strain. An overnight E. coli culture grown at 37 °C in Luria–Bertani (LB) medium with the appropriate antibiotics and vigorous shaking was diluted (1:100) in the same medium and allowed to grow in the same conditions until the OD600 was 0.5. Then, LiTryR expression was induced by addition of 1 mM isopropyl-β-D-1-thiogalactopyranoside (IPTG) for 16 h at 26 °C. The cells were centrifuged for 5 min at 9000g and 4 °C and the wet pellet resuspended in lysis buffer (50 mM Tris, pH 7, 300 mM NaCl, 25 mM imidazole, protease inhibitor cocktail, and 1 mg/mL lysozyme). […] The supernatant was sonicated again as previously described for 10 min and loaded on a HisTrap column (GE Healthcare, Chicago, IL) for 16 h at 4 °C using a P-1 peristaltic pump (GE Healthcare, Chicago, IL). Once loaded, the HisTrap column was connected to an ÄKTA purifier UPC 10 (GE Healthcare, Chicago, IL) and washed using a 5–10% gradient between buffer A (50 mM Tris, pH 7 and 300 mM NaCl) and B (50 mM Tris, pH 7, 300 mM NaCl, and 500 mM imidazole). LiTryR was eluted using a 40% gradient between buffers A and B. Fractions containing recombinant LiTryR were pooled and loaded into a HiPrep 26/10 Desalting column (GE Healthcare, Chicago, IL) previously equilibrated with buffer A. Finally, LiTryR was concentrated to 2 mg/mL using an Amicon Ultra-15 50K (Merck Millipore, Burlington, MA) and an equal volume of glycerol was added before storing at −20 °C.
# TryR oxidoreductase activity was determined spectrophotometrically using a modified version of the DTNB-coupled assay described by Hamilton et al.[52] Briefly, reactions were carried out at 26 °C in 250 μL of N-(2-hydroxyethyl)piperazine-N′-ethanesulfonic acid (HEPES) buffer (pH 7.5, 40 mM) containing ethylenediaminetetraacetic acid (EDTA) (1 mM), NADP^+ (30 μM), DTNB (25 μM), TS2 (1 μM), NADPH (150 μM), glycerol (0.02%), DMSO (1.75%), and recombinant TryR (7 nM). […] Reactions were started by addition of a mixture of NADPH and TS2.
# TryR oxidoreductase activity was monitored at 26 °C by an increase in absorbance at 412 nm in an EnSpire Multimode Plate Reader (PerkinElmer, Waltham, MA). […] (TNB) concentration was obtained by multiplying the absorbance values by 100 (50 μM TNB generates 0.5 arbitrary units of absorbance at 412 nm). In this DTNB-coupled assay, one molecule of T(SH)2 reduces one molecule of DTNB, producing two TNB molecules. All of the assays were conducted in at least three independent experiments. Data were analyzed using a nonlinear regression model with GraFit 6 software (Erithacus, Horley, Surrey, U.K.).
# [6] = test system: THP-1 monocyte-derived macrophages; assay: Cytotoxicity in THP-1 monocyte-derived macrophages (LDH activity); type: cell-based, human; settings: LDH activity
# Procedure: THP-1 cells were grown in RPMI-1640 medium (Gibco, Leiden, The Netherlands) supplemented with 10% heat-inactivated FCS, antibiotics, 10 mM HEPES, 2 mM glutamine, and 1 mM sodium pyruvate, pH 7.2, at 37 °C and 5% CO2.
# (§3) THP-1 monocytes were seeded in a 48-well plate at a concentration of 5 × 10^5 cells/mL (250 μL/well) in RPMI complete medium supplemented with phorbol 12-myristate 13-acetate (PMA) (100 ng/mL). Differentiation of THP-1 monocytes to macrophages was allowed for 24 h at 37 °C and 5% CO2. THP-1-derived macrophages were infected with GFP-expressing axenic amastigotes at 5 × 10^6 parasites/mL in RPMI complete medium for 24 h (250 μL/well). Extracellular amastigotes were washed twice with PBS. The remaining extracellular parasites were challenged for 24 h with THP-1 medium supplemented with 10% horse serum (Gibco) instead of FCS. Cells were washed twice with PBS, and treatments were performed in 250 μL of fresh RPMI medium supplemented with 10% horse serum for 72 h at 37 °C and 5% CO2. Afterward, treatments were removed by two PBS washes. Lysis of infected cells was performed with 120 μL of SDS 0.005% (w/v) in PBS. After a 30 min incubation at 37 °C, lysis was stopped by adding RPMI complete medium with PI at 20 μg/mL (120 μL/well). The lysates were transferred to a 96-well plate (200 μL/well), and the GFP^+ amastigotes extracted from the infected cells were acquired by a Beckman Coulter FC500 flow cytometer. Each sample (100 μL) was acquired for 20 s.
# Cytotoxicity of THP-1 infected macrophages was determined using an in-house developed lactate dehydrogenase (LDH) activity assay. LDH activity assays from the remaining cell lysates (100 μL/well) were carried out at 37 °C in 250 μL of Tris/HCl buffer (pH 8.9, 50 mM) containing DL-lactate (840 mM), NAD^+ (450 μM), 1-methoxyphenazine methosulfate (45 μM), and nitro blue tetrazolium chloride (40 μM). The color intensity of the generated formazan dye was monitored at 570 nm using an EnSpire Multimode Plate Reader (PerkinElmer, Waltham, MA). CC50 values were calculated using a nonlinear regression model with GraFit 6 software (Erithacus, Horley, Surrey, U.K.).
# [7] = test system: L. infantum intracellular amastigotes; assay: Leishmanicidal activity in amastigote-infected THP-1 monocyte-derived macrophages; type: cell-based, Leishmania infantum
# Procedure: as §3
# The relative number of GFP^+ intracellular amastigotes per cell in each sample was estimated after the division of the total number of GFP+ amastigotes by the LDH activity value of the sample. Results were normalized to the vehicle-treated controls. EC50 values of intracellular amastigotes were calculated using a nonlinear regression model with GraFit 6 software (Erithacus, Horley, Surrey, U.K.). All of the assays were conducted in at least three independent experiments.
# [8] = 24 h at 26 °C, read-out: EC50 promastigotes
molecule,measurement,setting,value
COc1cc(-n2cc(CCCCN)nn2)ccc1-c1nc(CCc2ccccc2)cs1.O=C(O)C(F)(F)F [12j],EC50,[1]; [8],8.5 ± 0.1 µM
same,SIa (ratio of EC50 against human cells to EC50 against amastigotes),[2],1.7
same,EC50,[2],7.1 ± 0.7 µM
same,IC50,[3],> 75 µM
same,EC50,[4],12.4 ± 0.7 µM
same,IC50,[5],20.1 ± 2.5 µM
edelfosine [reference compound],EC50,[6],3.5 ± 0.3 µM
same,SI (intracellular amastigotes),[7]; THP-1 / intracellular amastigotes,1.4
same,EC50,"[7]; amastigote-infected THP-1 macrophages, 72 h, read-out: EC50 intracellular amastigotes",2.5 ± 0.02 µM
NCCCc1cn(-c2ccc(-c3nc(CCc4ccccc4)cs3)c(OCCN3CCNC3=O)c2)nn1.O=C(O)C(F)(F)F [12h],SIp (ratio of EC50 against human cells to EC50 against promastigotes),[1],2.0
same,EC50,[1]; [8],12.7 ± 0.3 µM
same,SIa (ratio of EC50 against human cells to EC50 against amastigotes),[2],< 1
same,EC50,[2],31.6 ± 5.8 µM
same,IC50,[3],> 75 µM
same,EC50,[4],25.7 ± 2.2 µM
same,IC50,[5],20.8 ± 2.3 µM
"NCCCCc1cn(-c2ccc(-c3nc(-c4ccc(-c5ccccc5)cc4)c(-c4ccccc4)s3)c(OCCN3CCNC3=O)c2)nn1.O=C(O)C(F)(F)F [19b, 1-(2-(5-(4-(4-Ammoniobutyl)-1H-1,2,3-triazol-1-yl)-2-(4-([1,1′-biphenyl]-4-yl)-5-phenylthiazol-2-yl)phenoxy)ethyl)imidazolidin-2-one 2,2,2-Trifluoroacetate]",EC50,"[1]; promastigotes or amastigotes (either form), read-out: EC50 against Leishmania promastigotes or amastigotes",< 10 µM
same,SIa (ratio of EC50 against human cells to EC50 against amastigotes),[2],ND/1.8
same,EC50,[2],9.4 ± 0.5 µM
same,IC50,[3],11.3 ± 0.2 µM
same,EC50,[4],17.3 ± 0.1 µM
same,IC50,[5],18.4 ± 3.9 µM
CC(C)(C)Cc1csc(-c2ccc(-n3cc(CCCCN)nn3)cc2OCCN2CCNC2=O)n1.O=C(O)C(F)(F)F [12m],SIp (ratio of EC50 against human cells to EC50 against promastigotes),[1],1.0
same,EC50,[1]; [8],42.6 ± 3.9 µM
same,SIa (ratio of EC50 against human cells to EC50 against amastigotes),[2],1.8
same,EC50,[2],25.2 ± 0.5 µM
same,IC50,[3],> 75 µM
same,EC50,[4],44.9 ± 1.3 µM
same,IC50,[5],24.1 ± 1.4 µM
